Values quoted from earlier work, collected in paper PMC2984425, “Safety and pharmacokinetics of novel selective vascular endothelial growth factor receptor-2 inhibitor YN968D1 in patients with advanced malignancies” (BMC Cancer, 2010).

Key:
[1] = tested on: advanced refractory solid tumors; settings: pooled analysis of 137 patients from 4 phase I trials; cited from earlier work
renal cell carcinoma = tested on: renal cell carcinoma; parameters: method as in PMID 17215529; settings: first-line treatment for renal cell carcinoma; cited from earlier work
colorectal cancer = tested on: colorectal cancer; parameters: method as in PMID 17947727; settings: 84 patients with colorectal cancer, monotherapy; cited from earlier work
[2] = tested on: metastatic gastric cancer; parameters: method as in ref 16 = [16]; Moehler M Hartmann JT Lordick F Al-Batran S Reimer P Trarbach T Ebert M Daum S Weihrauch M Galle PR AIO Upper GI Group Sunitinib in patients with chemo-refractory metastatic gastric cancer: Preliminar; settings: of 52 patients, chemo-refractory metastatic gastric cancer; cited from earlier work

SMILES	PR, % of patients [1]	evaluable patients who achieved PR [1]	patients who had SD [1]	patients with signs of disease progression by radiological imaging [1]	progression-free survival (PFS) (renal cell carcinoma)	response rate (renal cell carcinoma)	patients who achieved PR (colorectal cancer)	patients with stable disease (colorectal cancer)	patients who showed tumor control [2]
CNC(=O)c1cc(Oc2ccc(NC(=O)Nc3ccc(Cl)c(C(F)(F)F)c3)cc2)ccn1 [sorafenib]	1.4%	2	38	70.8%					
CCN(CC)CCNC(=O)c1c(C)[nH]c(/C=C2\C(=O)Nc3ccc(F)cc32)c1C [sunitinib]					11 months	31%	1	13	5
